The test system of assay [1] is AR transactivation. The experiment in a line: AR transactivation, MMTV-luc / (ARE)4-luc luciferase reporter assay. The class given is cell-based. As to conditions: 10 nM DHT; for Repression of AR transactivation: MMTV-luc.
The subject of the next assay is AR protein levels. The experiment in a line: AR protein (Western blot) and AR mRNA (Northern blot) levels. The class given is cell-based. (In general: In western blotting, separated proteins are transferred to a membrane and probed.)
A further assay relates to U87MG cells. The experiment in a line: PTEN-induced apoptosis in AR-negative U87MG cells, TUNEL assay. The class given is cell-based. How it is done:
(§1) 31. […] (D) The LNCaP cells were transfected with plasmids as indicated for 16 h, and the medium was changed to 0.1% CDS media for 2 days. The cell apoptosis was determined by TUNEL assay (E) The LNCaP cells were transfected with plasmids as indicated for 16 h, harvested, and the cell extracts were subjected to SDS-PAGE. The Akt activity was determined by Western blotting using phospho(S473)-Akt antibody. (F) The U87MG cells were transfected with plasmids as indicated for 16 h, and the medium was changed 0.1% CDS media for 2 days. The cell apoptosis was determined by TUNEL assay. Data for luciferase activity and apoptosis are means±s.d. from three independent experiments.
311. For the apoptosis assay, the cells were transfected with plasmids for 24 h and grown in 0.1% charcol-stripped serum (CDS) media. The apoptosis was determined 2 days after transfection using the TUNEL assay according to the standard procedures (Oncogene). At least 200 cells were scored for each sample and data are means±s.d. from three independent experiments.

Assay [2] has as its system AR transactivation. The experiment in a line: AR transactivation, (ARE)4-luc in CWR22 cells. The class given is cell-based, human. How it is done: as §1
312. […] The cells were lysed and the luciferase activity was detected by the dual luciferase assay according to standard procedures.

Another assay has as its system AR, ER, GR, PR, RXR. The experiment in a line: GST pull-down assay of PTEN with nuclear receptors. The class given is binding. As to conditions: presence or absence of ligand. As for the experimental part: 27. […] (A) GST or GST-PTEN incubation with the [^35S]-labeled AR, ER, or RXR for 2 h in the presence or absence of the ligand. The bound proteins were analyzed by SDS-PAGE, followed by autoradiography. (B) Representation of PTEN deleted mutants. PTP domain, protein tyrosine phosphates domain; Ty-p, tyrosine phosphorylation domain. (C) [^35S]-labeled AR was incubated with different PTEN deleted mutants. The nearly equivalent aliquots of PTEN deleted mutants used are shown in the right panel. (D) Representation of AR deleted mutants. (E) GST or GST-PTEN was incubated with different AR deleted mutants. (F) The His-AR-N-DBD was incubated with [^35S]-PTEN or [^35S]-PTEN C124S for 2 h. The bound protein was analyzed by the SDS-PAGE, followed by autoradiography.
313. GST fusion proteins were purified as described by the manufacturer (Amersham Pharmacia). The purified GST-proteins were resuspended with 100 μl of interaction buffer (20 mM Tris-HCl/pH 8.0, 60 mM NaCl, 1 mM EDTA, 6 mM MgCl2, 1 mM Dithiothreitol, 8% Glycerol, 0.05% (v/v) NP-40, 1 mM PMSF, and proteinase inhibitors) and mixed with 5 μl of [^35S]-labeled TNT proteins in the presence or absence of 1 μM ligands on a rotating disk at 4° C. for 2 h. After extensive washes with NENT buffer, the bound proteins were separated on an 8% SDS-polyacrylamide gel and visualized by autoradiography.

In another assay the test system is LNCaP cells. The experiment in a line: PTEN-induced apoptosis in LNCaP cells, TUNEL assay. The class given is cell-based. The note with it: 0.1% CDS media 2 days.
Another assay relates to AR protein stability. The experiment in a line: Pulse-chase labeling of AR in COS-1 cells. The class given is cell-based. The note with it: 10 nM DHT. How it is done:
30. […] The cells were harvested for Western blot analysis. […] Western blot analysis was performed and AR and PTEN were detected by AR antibody or PTEN antibody. (C) PTEN-C1 cells were treated with 4 μg/ml Dox in 10% CDS media for 48 h. Total RNA was prepared and Northern blot analysis was performed using [^32P]-dCTP-labeled AR (aa, 1-389) as a probe. (D) COS-1 cells were transfected with AR along with pCDNA3 or PTEN in 10% CDS media for 16 h. […] The cell extracts were immunoprecipitated with AR antibody and subjected to SDS-PAGE followed by autoradiography. Data were from three identical results. (E) COS-1 cells were transfected with AR along with pCDNA3 or dAkt in 10% CDS media for 16 h, pulsed with [^35S]-methionine for 45 min, and then harvested at different chase times as indicated. LY294002 (20 μM) was added 2 h before pulsing with [^35S]-methionine.
317. Pulse-chase experiments were performed as described (Lo et al. (1999) Nat Cell Biol 1, 472-8) with some modifications. Briefly, COS-1 cells were transfected with pSG5-AR in combination with pCDNA3 or pCDNA3 PTEN in 10% CDS media for […]. Cells were grown under serum starvation conditions for 2 h in methionine/cysteine-deficient medium, and then the cells were pulsed for 45 min with 200 μCi/ml [^35S]-methionine/cysteine (NEN). […]

The test system of a further assay is PSA mRNA expression. The experiment in a line: PSA mRNA expression in LNCaP cells, Northern blot. The class given is cell-based. The note with it: presence of androgen.
The subject of assay [3] is AR transactivation. The experiment in a line: AR transactivation with Smad3/Smad4, CAT reporters in PC3-AR2, PC-3 and LNCaP cells. The class given is cell-based, human. As to conditions: PC3-AR2. How it is done: 32. […] LNCaP cell were transfected with Smad3 or Smad4 expression vector instead of PC-3(AR)2 cells in experiments otherwise identical with those in A (B), PC-3(AR)2 cells stably transfected with AR were over-expressed with the indicated amounts of Smad3 or Smad4 or SRC-1. 3 μg of MMTV-CAT was used as a reporter plasmid in all experiments. All values represent the averages±SD of four independent experiments. […] PSA expression level was determined by Northern blotting. The probe was obtained from exon 1 of the PSA gene and labeled with [α-^32P] dCTP. A β-actin probe was used as a control for equivalent mRNA loading. (C, Table 1) The RNA samples from (A) were reverse transcribed to cDNAs and all of the samples were subjected to real-time CR using an ABI Prism 7700 Sequence Detection System (Perkin-Elmer Applied bio systems). PCR was performed using the SYBR Green PCR Core Reagents kit (Perkin-Elmer Applied Bio systems). PSA and β-actin forward, reverse primers concentrations were 2.5 μM. To reduce variability between replicates, PCR premixes which contained all reagents except for total RNA were prepared and aliquoted into 1.5 ml microfuge tubes. Specific PCR amplification products were detected by the fluorescent double-stranded DNA-binding dye SYBR Green core reagent kit. […]
333. […] The CAT activity was visualized and quantitated by STORM 840 (Molecular Dynamics). […]

The test system of assay [4] is AR transactivation. As to conditions: previous reports; cited from earlier work.
The subject of assay [5] is AR transactivation. The experiment in a line: AR transactivation with TSA, MMTV-LUC in PC3-AR2 cells. The class given is cell-based.
Assay [6] relates to AR-mediated transactivation. The experiment in a line: AR-mediated transactivation with TGF-β, MMTV-CAT in DU145 and PC-3 cells. The class given is cell-based, human. As for the experimental part: 19. […] (B). […] In the right panel, a fixed amount of TGF-β1 (10 ng/ml) was added into transfected PC-3 cells with increasing amounts of specific TGF-β1 neutralizing antibody. (C), PC-3(AR)2 cells stably transfected with AR were overexpressed with TGF-β type I (TβRI) or type II (TβRII)receptor or constitutively active TGF-β type I receptor (TβRI-T204D) as indicated. 3 μg of MMTV-CAT or MMTV-Luc was used as a reporter plasmid in all experiments. All values represent the averages+SD of four independent experiments.
284. To study the potential correlation between androgen and TGF-β in prostate cancer cells, the TGF-β responsive prostate cancer DU145 and PC-3 cells were chosen to examine the effect of TGF-β on androgen-induced mouse […] tumor virus (MMTV) promoter activity. […] Similar results were obtained with PC-3 cells, where AR-mediated transactivation was enhanced by TGF-β (FIG. 13B, lane 2 Vs 3-5) and suppressed by the TGF-β specific neutralizing antibody (FIG. 13B, lane 6 vs. 7-10), both in a dose-dependent manner (FIG. 13B).
294. […] The CAT activity was visualized and quantitated by STORM 840 (Molecular Dynamics). […]

The target of assay [7] is T1, interaction between Smad3 and AR (Homo sapiens, UniProt P10275).
T1 construct: expressed in transfected cells; host or cells: DU145
T1 sequence (P10275 whole entry): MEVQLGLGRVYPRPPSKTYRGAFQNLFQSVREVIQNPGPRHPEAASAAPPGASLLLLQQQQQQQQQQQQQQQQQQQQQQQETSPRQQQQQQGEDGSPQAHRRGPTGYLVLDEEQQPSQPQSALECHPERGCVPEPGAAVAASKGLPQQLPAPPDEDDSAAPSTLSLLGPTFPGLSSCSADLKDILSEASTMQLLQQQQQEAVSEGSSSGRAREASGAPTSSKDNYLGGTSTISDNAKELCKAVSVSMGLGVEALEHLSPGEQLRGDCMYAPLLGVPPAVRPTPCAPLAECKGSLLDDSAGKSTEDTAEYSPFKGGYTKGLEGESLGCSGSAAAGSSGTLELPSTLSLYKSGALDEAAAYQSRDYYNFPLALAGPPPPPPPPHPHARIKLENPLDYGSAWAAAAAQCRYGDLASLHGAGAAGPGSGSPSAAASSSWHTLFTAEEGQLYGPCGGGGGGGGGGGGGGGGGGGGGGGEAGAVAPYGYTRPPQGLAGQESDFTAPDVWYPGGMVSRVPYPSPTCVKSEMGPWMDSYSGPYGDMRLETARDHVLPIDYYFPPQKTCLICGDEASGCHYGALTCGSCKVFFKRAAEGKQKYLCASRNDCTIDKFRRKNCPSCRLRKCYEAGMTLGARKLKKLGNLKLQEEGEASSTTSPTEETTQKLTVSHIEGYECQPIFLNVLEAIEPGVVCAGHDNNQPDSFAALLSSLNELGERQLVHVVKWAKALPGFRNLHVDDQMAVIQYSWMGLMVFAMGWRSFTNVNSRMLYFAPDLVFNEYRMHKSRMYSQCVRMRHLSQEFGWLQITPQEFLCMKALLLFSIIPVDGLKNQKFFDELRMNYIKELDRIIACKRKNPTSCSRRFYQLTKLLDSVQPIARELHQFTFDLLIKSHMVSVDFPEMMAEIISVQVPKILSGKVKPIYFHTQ
T1 sequence (P84022 whole entry partner): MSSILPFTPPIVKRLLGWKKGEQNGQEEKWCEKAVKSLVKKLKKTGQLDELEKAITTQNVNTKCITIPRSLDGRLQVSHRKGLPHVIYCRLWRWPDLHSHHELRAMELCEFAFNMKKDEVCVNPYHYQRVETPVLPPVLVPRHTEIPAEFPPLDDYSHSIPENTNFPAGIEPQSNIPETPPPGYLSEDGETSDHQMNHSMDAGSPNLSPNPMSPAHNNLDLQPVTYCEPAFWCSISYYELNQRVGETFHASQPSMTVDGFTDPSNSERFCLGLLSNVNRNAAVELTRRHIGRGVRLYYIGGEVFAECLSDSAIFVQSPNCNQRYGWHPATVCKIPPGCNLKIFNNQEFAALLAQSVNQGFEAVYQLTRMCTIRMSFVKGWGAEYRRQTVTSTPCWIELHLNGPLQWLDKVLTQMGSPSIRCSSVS
The experiment in a line: Mammalian two-hybrid assay Gal4-Smad3 / VP16-AR. The class given is cell-based. The note with it: DU145.

The test system of assay [8] is wtAR, mtARt877a, PR, VDR, ER transactivation. As to conditions: previous reports; cited from earlier work.
The test system is the same in assay [9]. The experiment in a line: Steroid receptor transactivation with Smad3 in DU145 cells (wtAR, mtARt877a, PR, VDR, ER). The class given is cell-based, human.

Like-named read-outs stand apart in the source and are kept apart here.

As to “PTEN: tumor suppressor, phosphatase and tensin homolog deleted on chromosome ten”, the “Repression of AR transactivation” value is given as “less than 2 fold” in the assay on AR transactivation [1] (AR negative DU145 and PC-3); 4 fold with AR transactivation [1] (AR-positive LNCaP cells). The “Effect on AR transactivation” value in the assay with AR transactivation [1] (LNCaP, MMTV-luc and (ARE)4-luc) is “suppressed AR transactivation in both luciferase reporters at a similar level”; in the assay on AR transactivation [2], “dramatically suppressed AR transactivation”. Besides, in the assay on AR protein levels (COS-1 cells, transient transfection), the AR protein levels entry is on record as “reduce AR protein levels”. In addition, the “AR mRNA levels normalized by β-actin” value with AR protein levels (LNCaP PTEN-C1, Dox-induced PTEN) is given as “remained relatively unchanged”. Besides, the “Endogenous AR protein levels” value in the assay with AR protein levels (stable LNCaP clones, 4 μg/ml Dox 48 h, 10 nM DHT) is “reduced endogenous AR protein levels”. In addition, the Apoptosis entry with U87MG cells is on record as “still able to induce apoptosis”; in the assay with LNCaP cells it was “induce apoptosis markedly”. Besides, in the assay with AR, ER, GR, PR, RXR, the “Binding to nuclear receptors” value is “binds preferentially to AR and the ER”. Moreover, in the assay on AR protein stability, the “Reduction of the half-life of newly synthesized [35S]-AR” value was 4 to 5 fold. Besides, the “Effect on androgen-induced PSA mRNA expression” value in the assay with PSA mRNA expression is recorded as “repressed”.

Take SRC-1: steroid receptor coactivator-1: the “Effect on AR transactivation in the presence of Smad3 or Smad4” value in the assay with AR transactivation [3] was “increase AR transactivation”.

As to `CC(/C=C/C(=O)NO)=C\[C@@H](C)C(=O)c1ccc(N(C)C)cc1` [TSA, trichostatin A], the “Effect on androgen-mediated AR transactivation” value in the assay on AR transactivation [4] is listed as “induce the androgen-mediated AR transactivation”. Also, the “Effect on Smad3/Smad4-suppressed AR transactivation” value in the assay with AR transactivation [5] was “reverse the Smad3/Smad4-suppressed AR transactivation in a dose-dependent manner”; in the assay with AR transactivation [5] (listed as trichostatin A) it was “reverse Smad3/Smad4-repressed AR transactivation”. For the same molecule, the “Effect on AR transactivation” value in the assay with AR transactivation [5] (DHT, increasing doses) was “enhance AR transactivation in a dose-dependent manner”.

As for TGF-β: transforming growth factor β, the “Effect on AR-mediated transactivation” value is listed as “enhanced” in assay [6] (DU145, 10^−8 M DHT, TGF-β1 10 ng/ml) and “enhanced” in assay [6] (PC-3, dose-dependent). In addition, the “Effect on Smad3-AR two-hybrid reporter gene activity” value was “further induced” in [7] (10 nM DHT) and “cannot exert this effect” in assay [7] (absence of DHT).

Take `CC(=O)[C@H]1CC[C@H]2[C@@H]3CCC4=CC(=O)CC[C@]4(C)[C@H]3CC[C@]12C` [progesterone]: the “Stimulation of LNCaP mtARt877a” value in assay [8] was “stimulated”.

In the case of `C[C@]12CC[C@@H]3c4ccc(O)cc4CC[C@H]3[C@@H]1CC[C@@H]2O` [E2, 17-β estradiol], in [8], the “Stimulation of LNCaP mtARt877a” value was “stimulated”. Moreover, the “mtARt877a transactivation response to ligand” value in assay [9] was “responded much better”. The “wtAR transactivation response to ligand” value in assay [9] (DHT 10 nM, HF 1 μM, E2 10 nM) was “respond marginally”.

The values above are taken from patent US20040235717A1, “Suppression of androgen receptor transactivation through new pathways to ar and ar coactivators and repressors” (priority 2001, published 2004).
